Laboratory results as given in patent US5326788A, “Biological fluid purification system” (priority 1992, dated 1994).
Where “and” joins values, the source holds several entries; their conditions need not be identical. Identical values can stand only once.

Test: Effect of hypericin on hematologic parameters and blood chemistries of mouse blood
Parameters: Hematocrit: unit not given here
Conditions: for BUN / Hb / Hematocrit / WBC / albumin / alk. phos. / calcium / chloride / cholesterol / creatinine / globulins / glucose / iron / phosphorous / retics / sodium / total bilirubin / total protein / triglycerides / uric acid: mouse blood
Protocol: Analogous experiments to assess the effect of hypericin on routine clinical chemistries and hematologic parameters were determined in a commercial laboratory on mouse blood using higher concentrations of hypericin. Eight blood samples drawn in parallel were treated with hypericin ranging in concentration from 2.5 micrograms/ml to 200 micrograms/ml of whole blood.

Cc1cc(O)c2c(=O)c3c(O)cc(O)c4c5c(O)cc(O)c6c(=O)c7c(O)cc(C)c8c1c2c(c34)c(c78)c65 [hypericin]
BUN (2.5 μg hypericin): 18 mg/dL and 17 mg/dL
Hb (2.5 μg hypericin): 12.7 gm, dl
Hematocrit (2.5 μg hypericin): 38.3 and 37.8
WBC (2.5 μg hypericin): 4.6 /cumm and 4.8 /cumm
albumin (2.5 μg hypericin): 3.4 g/dL and 2.6 g/dL
alk. phos. (2.5 μg hypericin): 140 IU/l and 121 IU/l
calcium (2.5 μg hypericin): 6.7 mg/dL and 5.4 mg/dL
chloride (2.5 μg hypericin): 113 meq/l and 102 meq/l
cholesterol (2.5 μg hypericin): 149 mg/dL and 143 mg/dL
creatinine (2.5 μg hypericin): 0.4 mg/dL
globulins (2.5 μg hypericin): 2.6 g/dL and 3.2 g/dL
glucose (2.5 μg hypericin): 113 mg/dL and 68 mg/dL
iron (2.5 μg hypericin): 219 mog/dl and 169 mog/dl
phosphorous (2.5 μg hypericin): 8.1 mg/dL and 7.2 mg/dL
retics (2.5 μg hypericin): 1.5% and 2.3%
sodium (2.5 μg hypericin): 150 meq/l and 138 meq/l
total bilirubin (2.5 μg hypericin): 0.8 mg/dL and 1.2 mg/dL
total protein (2.5 μg hypericin): 6.0 g/dL and 5.8 g/dL
triglycerides (2.5 μg hypericin): 80 mg/dL and 77 mg/dL
uric acid (2.5 μg hypericin): 2.6 mg/dL and 2.8 mg/dL
BUN (5.0 μg hypericin): 18 mg/dL
Hb (5.0 μg hypericin): 12.9 gm, dl and 12.4 gm, dl
Hematocrit (5.0 μg hypericin): 38.5
WBC (5.0 μg hypericin): 4.7 /cumm and 4.5 /cumm
albumin (5.0 μg hypericin): 3.5 g/dL
alk. phos. (5.0 μg hypericin): 140 IU/l
calcium (5.0 μg hypericin): 7.0 mg/dL
chloride (5.0 μg hypericin): 113 meq/l
cholesterol (5.0 μg hypericin): 156 mg/dL
creatinine (5.0 μg hypericin): 0.4 mg/dL
glucose (5.0 μg hypericin): 112 mg/dL
iron (5.0 μg hypericin): 220 mog/dl
phosphorous (5.0 μg hypericin): 8.1 mg/dL
retics (5.0 μg hypericin): 2.2% and 2.0%
sodium (5.0 μg hypericin): 150 meq/l
total bilirubin (5.0 μg hypericin): 0.8 mg/dL
triglycerides (5.0 μg hypericin): 85 mg/dL
uric acid (5.0 μg hypericin): 2.7 mg/dL
BUN (10 μg hypericin): 18 mg/dL
Hb (10 μg hypericin): 12.8 gm, dl and 12.3 gm, dl
Hematocrit (10 μg hypericin): 37.8
WBC (10 μg hypericin): 4.5 /cumm
albumin (10 μg hypericin): 3.5 g/dL
alk. phos. (10 μg hypericin): 138 IU/l and 140 IU/l
calcium (10 μg hypericin): 6.7 mg/dL
chloride (10 μg hypericin): 112 meq/l
cholesterol (10 μg hypericin): 155 mg/dL
creatinine (10 μg hypericin): 0.3 mg/dL
globulins (10 μg hypericin): 3.0 g/dL
glucose (10 μg hypericin): 113 mg/dL
iron (10 μg hypericin): 218 mog/dl and 220 mog/dl
phosphorous (10 μg hypericin): 8.2 mg/dL and 8.1 mg/dL
retics (10 μg hypericin): 1.7% and 0.5%
sodium (10 μg hypericin): 148 meq/l
total bilirubin (10 μg hypericin): 0.8 mg/dL and 0.9 mg/dL
total protein (10 μg hypericin): 6.5 g/dL
triglycerides (10 μg hypericin): 67 mg/dL and 64 mg/dL
uric acid (10 μg hypericin): 2.9 mg/dL and 3.0 mg/dL
BUN (25 μg hypericin): 18 mg/dL
Hb (25 μg hypericin): 12.8 gm, dl
Hematocrit (25 μg hypericin): 37.7 and 37.9
WBC (25 μg hypericin): 4.7 /cumm
albumin (25 μg hypericin): 3.7 g/dL and 3.6 g/dL
alk. phos. (25 μg hypericin): 136 IU/l and 134 IU/l
calcium (25 μg hypericin): 6.7 mg/dL and 6.3 mg/dL
chloride (25 μg hypericin): 111 meq/l and 110 meq/l
cholesterol (25 μg hypericin): 166 mg/dL and 162 mg/dL
creatinine (25 μg hypericin): 0.3 mg/dL
globulins (25 μg hypericin): 3.1 g/dL and 3.3 g/dL
glucose (25 μg hypericin): 111 mg/dL and 110 mg/dL
iron (25 μg hypericin): 218 mog/dl and 219 mog/dl
phosphorous (25 μg hypericin): 8.2 mg/dL and 8.1 mg/dL
retics (25 μg hypericin): 0.8% and 0.3%
sodium (25 μg hypericin): 146 meq/l and 144 meq/l
total bilirubin (25 μg hypericin): 0.9 mg/dL
total protein (25 μg hypericin): 6.8 g/dL and 6.9 g/dL
triglycerides (25 μg hypericin): 80 mg/dL and 84 mg/dL
uric acid (25 μg hypericin): 3.9 mg/dL and 3.8 mg/dL
BUN (50 μg hypericin): 18 mg/dL
Hb (50 μg hypericin): 12.8 gm, dl
Hematocrit (50 μg hypericin): 38.1 and 38.0
WBC (50 μg hypericin): 4.8 /cumm
albumin (50 μg hypericin): 3.5 g/dL
alk. phos. (50 μg hypericin): 141 IU/l
calcium (50 μg hypericin): 6.6 mg/dL and 6.8 mg/dL
chloride (50 μg hypericin): 113 meq/l
cholesterol (50 μg hypericin): 152 mg/dL and 150 mg/dL
creatinine (50 μg hypericin): 0.4 mg/dL
globulins (50 μg hypericin): 3.0 g/dL
glucose (50 μg hypericin): 113 mg/dL and 114 mg/dL
iron (50 μg hypericin): 220 mog/dl and 221 mog/dl
phosphorous (50 μg hypericin): 8.3 mg/dL and 8.2 mg/dL
retics (50 μg hypericin): 1.4% and 2.5%
sodium (50 μg hypericin): 148 meq/l
total bilirubin (50 μg hypericin): 0.8 mg/dL and 0.9 mg/dL
total protein (50 μg hypericin): 6.5 g/dL
triglycerides (50 μg hypericin): 61 mg/dL and 62 mg/dL
uric acid (50 μg hypericin): 3.0 mg/dL and 2.8 mg/dL
BUN (100 μg hypericin): 18 mg/dL and 17 mg/dL
Hb (100 μg hypericin): 12.8 gm, dl and 13.2 gm, dl
Hematocrit (100 μg hypericin): 37.8 and 38.4
WBC (100 μg hypericin): 4.9 /cumm and 5.0 /cumm
albumin (100 μg hypericin): 3.5 g/dL and 3.4 g/dL
alk. phos. (100 μg hypericin): 140 IU/l and 138 IU/l
calcium (100 μg hypericin): 6.6 mg/dL
cholesterol (100 μg hypericin): 153 mg/dL and 151 mg/dL
creatinine (100 μg hypericin): 0.4 mg/dL
globulins (100 μg hypericin): 3.0 g/dL and 2.7 g/dL
iron (100 μg hypericin): 220 mog/dl and 216 mog/dl
phosphorous (100 μg hypericin): 8.2 mg/dL and 8.0 mg/dL
retics (100 μg hypericin): 0.8% and 0.7%
sodium (100 μg hypericin): 149 meq/l and 146 meq/l
total bilirubin (100 μg hypericin): 1.0 mg/dL
total protein (100 μg hypericin): 6.5 g/dL and 6.1 g/dL
triglycerides (100 μg hypericin): 92 mg/dL and 87 mg/dL
uric acid (100 μg hypericin): 3.2 mg/dL and 3.1 mg/dL
BUN (200 μg hypericin): 18 mg/dL
Hb (200 μg hypericin): 12.6 gm, dl and 12.7 gm, dl
Hematocrit (200 μg hypericin): 37.5 and 34.6
WBC (200 μg hypericin): 4.4 /cumm and 4.6 /cumm
albumin (200 μg hypericin): 3.5 g/dL
alk. phos. (200 μg hypericin): 139 IU/l and 140 IU/l
calcium (200 μg hypericin): 6.6 mg/dL
chloride (200 μg hypericin): 110 meq/l and 111 meq/l
cholesterol (200 μg hypericin): 155 mg/dL and 157 mg/dL
creatinine (200 μg hypericin): 0.4 mg/dL
globulins (200 μg hypericin): 3.3 g/dL and 2.9 g/dL
glucose (200 μg hypericin): 122 mg/dL and 111 mg/dL
iron (200 μg hypericin): 211 mog/dl and 215 mog/dl
phosphorous (200 μg hypericin): 7.9 mg/dL and 8.0 mg/dL
retics (200 μg hypericin): 2.8% and 0.6%
sodium (200 μg hypericin): 145 meq/l and 147 meq/l
total bilirubin (200 μg hypericin): 1.1 mg/dL
total protein (200 μg hypericin): 6.8 g/dL and 6.4 g/dL
triglycerides (200 μg hypericin): 92 mg/dL and 89 mg/dL
uric acid (200 μg hypericin): 3.8 mg/dL and 3.6 mg/dL
effect on clinical chemistries and hematological parameters (summary) (up to 200 micrograms/ml): did not significantly affect
